Source: ChEMBL document CHEMBL4177722, “Small molecule inhibitors of anthrax edema factor” (Bioorg Med Chem Lett, 2018)

Tests used:
[1] = biological target: T1, Calmodulin-sensitive adenylate cyclase (Bacillus anthracis) (UniProt P40136); experiment: Inactivation of Bacillus anthracis edema factor assessed as Kinact/Ki ratio in presence of CaM incubated for 10 to 240 mins by EnzChek pyrophosphate assay relative to FSBA
T1 sequence (whole entry): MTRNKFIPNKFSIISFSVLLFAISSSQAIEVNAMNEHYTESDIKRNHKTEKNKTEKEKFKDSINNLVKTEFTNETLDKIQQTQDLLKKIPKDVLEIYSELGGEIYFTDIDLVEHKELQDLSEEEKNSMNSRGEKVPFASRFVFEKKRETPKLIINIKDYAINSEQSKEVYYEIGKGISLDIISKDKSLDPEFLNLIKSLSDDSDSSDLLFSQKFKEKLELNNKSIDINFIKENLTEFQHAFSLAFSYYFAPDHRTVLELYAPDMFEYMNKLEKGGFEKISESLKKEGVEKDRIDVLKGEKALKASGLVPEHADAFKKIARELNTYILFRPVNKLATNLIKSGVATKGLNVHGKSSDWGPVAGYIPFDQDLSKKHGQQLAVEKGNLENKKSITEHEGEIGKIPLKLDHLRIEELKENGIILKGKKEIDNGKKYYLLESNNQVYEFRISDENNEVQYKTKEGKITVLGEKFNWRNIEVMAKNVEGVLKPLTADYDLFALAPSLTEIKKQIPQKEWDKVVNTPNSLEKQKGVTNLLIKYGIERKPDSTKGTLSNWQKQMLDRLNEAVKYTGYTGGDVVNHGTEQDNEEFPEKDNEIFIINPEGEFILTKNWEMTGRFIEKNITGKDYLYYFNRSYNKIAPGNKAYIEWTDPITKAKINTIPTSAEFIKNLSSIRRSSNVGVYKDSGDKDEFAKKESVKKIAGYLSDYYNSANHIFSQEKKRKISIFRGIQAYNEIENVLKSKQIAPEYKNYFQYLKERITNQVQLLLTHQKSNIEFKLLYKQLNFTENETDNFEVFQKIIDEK

[2] = Cytotoxicity against mouse RAW264.7 cells assessed a reduction in cell viability incubated for 24 hrs in presence of 10% FBS by MTT assay; assay type: cell-based; settings: RAW264.7 cells
[3] = biological target: T2, Aurora kinase A (Homo sapiens) (UniProt O14965); experiment: Inhibition of human Aurora A at 10 uM by ADP-Glo kinase assay
T2 sequence (whole entry): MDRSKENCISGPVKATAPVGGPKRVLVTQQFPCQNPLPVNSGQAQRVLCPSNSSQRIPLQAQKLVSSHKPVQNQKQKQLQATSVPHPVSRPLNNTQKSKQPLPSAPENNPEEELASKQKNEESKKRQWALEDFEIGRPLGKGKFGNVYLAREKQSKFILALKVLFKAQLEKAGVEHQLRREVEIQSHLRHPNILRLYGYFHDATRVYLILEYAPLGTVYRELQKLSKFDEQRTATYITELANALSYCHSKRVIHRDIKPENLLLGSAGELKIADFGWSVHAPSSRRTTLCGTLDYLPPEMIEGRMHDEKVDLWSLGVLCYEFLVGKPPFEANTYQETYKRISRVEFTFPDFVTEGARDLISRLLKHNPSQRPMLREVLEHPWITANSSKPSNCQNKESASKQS

[4] = biological target: Casein kinase I isoform alpha (Homo sapiens) (UniProt P48729); experiment: Inhibition of human CK1a1 at 10 uM by ADP-Glo kinase assay
[5] = biological target: Death-associated protein kinase 1 (Homo sapiens) (UniProt P53355); experiment: Inhibition of human DAPK1 at 10 uM by ADP-Glo kinase assay
[6] = biological target: T3, Inhibitor of nuclear factor kappa-B kinase subunit beta (Homo sapiens) (UniProt O14920); experiment: Inhibition of human IKKbeta at 10 uM by ADP-Glo kinase assay
T3 sequence (whole entry): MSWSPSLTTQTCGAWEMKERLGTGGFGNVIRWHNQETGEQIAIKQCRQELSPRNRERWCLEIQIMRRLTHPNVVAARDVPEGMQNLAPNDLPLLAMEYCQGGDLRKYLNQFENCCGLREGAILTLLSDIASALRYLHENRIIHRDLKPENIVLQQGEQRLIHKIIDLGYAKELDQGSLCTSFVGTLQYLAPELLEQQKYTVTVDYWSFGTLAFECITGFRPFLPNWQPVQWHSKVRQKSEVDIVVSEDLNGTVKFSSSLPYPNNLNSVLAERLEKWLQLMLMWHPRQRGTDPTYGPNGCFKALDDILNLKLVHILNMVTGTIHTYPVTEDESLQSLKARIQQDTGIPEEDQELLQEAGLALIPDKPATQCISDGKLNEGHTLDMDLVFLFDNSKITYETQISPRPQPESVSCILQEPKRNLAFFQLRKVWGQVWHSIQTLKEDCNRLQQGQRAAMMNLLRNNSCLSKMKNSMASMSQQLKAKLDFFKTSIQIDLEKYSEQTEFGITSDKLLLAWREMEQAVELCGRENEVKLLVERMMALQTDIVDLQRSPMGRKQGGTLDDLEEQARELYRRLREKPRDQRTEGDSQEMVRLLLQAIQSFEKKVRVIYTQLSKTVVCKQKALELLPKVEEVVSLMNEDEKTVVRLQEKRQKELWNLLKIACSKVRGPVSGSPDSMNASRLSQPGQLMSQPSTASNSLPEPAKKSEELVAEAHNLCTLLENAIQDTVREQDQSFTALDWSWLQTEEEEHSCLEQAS

[7] = biological target: Interleukin-1 receptor-associated kinase 1 (Homo sapiens) (UniProt P51617); experiment: Inhibition of human IRAK at 10 uM by ADP-Glo kinase assay
[8] = biological target: Mitogen-activated protein kinase 14 (Homo sapiens) (UniProt Q16539); experiment: Inhibition of human p38alpha at 10 uM by ADP-Glo kinase assay
[9] = biological target: Serine/threonine-protein kinase PAK 1 (Homo sapiens) (UniProt Q13153); experiment: Inhibition of human PAK1 at 10 uM by ADP-Glo kinase assay
[10] = Chemical stability in 0.1 M sodium tetraborate (Na2B4O7, pH 10.0) assessed as parent compound remaining incubated for 24 hrs by LC-MS method; assay type: physicochemical; settings: 0.1 M sodium tetraborate buffer, read-out: Stability
[11] = Chemical stability in 0.1 N HCl at pH 1.2 assessed as parent compound remaining incubated for 24 hrs by LC-MS method; assay type: physicochemical; settings: buffer, pH 1.2, 24 h
[12] = Chemical stability in simulated gastric intestinal fluid at pH 1.7 assessed as parent compound remaining incubated for 24 hrs by LC-MS method; assay type: ADME, physicochemical; settings: simulated gi fluid, pH 1.7, 24 h
[13] = Drug metabolism in 0.1 M sodium tetraborate (Na2B4O7, pH 10.0) assessed as fluoro-sulphonyl group hydrolysis incubated for 24 hrs by LC-MS method; assay type: physicochemical; settings: pH 10, 24 h
[14] = Stability in C57BL/6 mouse plasma assessed as half life at 10 uM by LC-MS method; assay type: ADME, cell-free, C57B/6
RAW264.7 = experiment: Cytotoxicity against mouse RAW264.7 cells assessed a reduction in cell viability incubated for 24 hrs in absence of 10% FBS by MTT assay; assay type: cell-based; settings: raw264.7, 24 h

Sequence of Interleukin-1 receptor-associated kinase 1 (Homo sapiens) (P51617 whole entry, looked up): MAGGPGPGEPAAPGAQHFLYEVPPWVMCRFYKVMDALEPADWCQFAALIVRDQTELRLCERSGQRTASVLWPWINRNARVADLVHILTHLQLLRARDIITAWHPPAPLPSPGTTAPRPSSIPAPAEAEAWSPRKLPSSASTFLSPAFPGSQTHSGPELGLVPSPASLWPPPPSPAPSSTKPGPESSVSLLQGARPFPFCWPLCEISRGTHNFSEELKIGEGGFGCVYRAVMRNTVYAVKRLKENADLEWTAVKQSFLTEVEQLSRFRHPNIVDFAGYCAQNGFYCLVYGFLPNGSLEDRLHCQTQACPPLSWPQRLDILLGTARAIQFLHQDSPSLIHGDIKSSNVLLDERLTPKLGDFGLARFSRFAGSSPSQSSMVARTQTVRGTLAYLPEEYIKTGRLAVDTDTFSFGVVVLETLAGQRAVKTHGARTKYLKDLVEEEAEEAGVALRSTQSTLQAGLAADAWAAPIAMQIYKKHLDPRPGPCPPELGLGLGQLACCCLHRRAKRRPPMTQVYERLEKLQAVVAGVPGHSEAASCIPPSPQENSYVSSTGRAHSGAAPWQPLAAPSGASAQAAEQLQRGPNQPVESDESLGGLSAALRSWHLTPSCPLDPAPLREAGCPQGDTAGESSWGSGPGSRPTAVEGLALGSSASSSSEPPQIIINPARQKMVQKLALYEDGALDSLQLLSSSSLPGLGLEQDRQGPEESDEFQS
Sequence of Mitogen-activated protein kinase 14 (Homo sapiens) (Q16539 whole entry): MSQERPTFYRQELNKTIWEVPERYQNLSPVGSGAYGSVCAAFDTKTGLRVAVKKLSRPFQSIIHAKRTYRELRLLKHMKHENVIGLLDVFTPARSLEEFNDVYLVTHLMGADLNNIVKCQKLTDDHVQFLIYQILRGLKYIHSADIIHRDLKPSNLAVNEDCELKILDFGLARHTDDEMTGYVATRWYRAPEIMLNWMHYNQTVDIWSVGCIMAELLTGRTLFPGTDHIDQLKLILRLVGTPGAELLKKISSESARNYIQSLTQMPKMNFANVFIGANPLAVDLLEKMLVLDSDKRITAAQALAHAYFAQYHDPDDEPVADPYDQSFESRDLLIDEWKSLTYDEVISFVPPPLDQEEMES
Sequence of Death-associated protein kinase 1 (Homo sapiens) (P53355 whole entry, looked up): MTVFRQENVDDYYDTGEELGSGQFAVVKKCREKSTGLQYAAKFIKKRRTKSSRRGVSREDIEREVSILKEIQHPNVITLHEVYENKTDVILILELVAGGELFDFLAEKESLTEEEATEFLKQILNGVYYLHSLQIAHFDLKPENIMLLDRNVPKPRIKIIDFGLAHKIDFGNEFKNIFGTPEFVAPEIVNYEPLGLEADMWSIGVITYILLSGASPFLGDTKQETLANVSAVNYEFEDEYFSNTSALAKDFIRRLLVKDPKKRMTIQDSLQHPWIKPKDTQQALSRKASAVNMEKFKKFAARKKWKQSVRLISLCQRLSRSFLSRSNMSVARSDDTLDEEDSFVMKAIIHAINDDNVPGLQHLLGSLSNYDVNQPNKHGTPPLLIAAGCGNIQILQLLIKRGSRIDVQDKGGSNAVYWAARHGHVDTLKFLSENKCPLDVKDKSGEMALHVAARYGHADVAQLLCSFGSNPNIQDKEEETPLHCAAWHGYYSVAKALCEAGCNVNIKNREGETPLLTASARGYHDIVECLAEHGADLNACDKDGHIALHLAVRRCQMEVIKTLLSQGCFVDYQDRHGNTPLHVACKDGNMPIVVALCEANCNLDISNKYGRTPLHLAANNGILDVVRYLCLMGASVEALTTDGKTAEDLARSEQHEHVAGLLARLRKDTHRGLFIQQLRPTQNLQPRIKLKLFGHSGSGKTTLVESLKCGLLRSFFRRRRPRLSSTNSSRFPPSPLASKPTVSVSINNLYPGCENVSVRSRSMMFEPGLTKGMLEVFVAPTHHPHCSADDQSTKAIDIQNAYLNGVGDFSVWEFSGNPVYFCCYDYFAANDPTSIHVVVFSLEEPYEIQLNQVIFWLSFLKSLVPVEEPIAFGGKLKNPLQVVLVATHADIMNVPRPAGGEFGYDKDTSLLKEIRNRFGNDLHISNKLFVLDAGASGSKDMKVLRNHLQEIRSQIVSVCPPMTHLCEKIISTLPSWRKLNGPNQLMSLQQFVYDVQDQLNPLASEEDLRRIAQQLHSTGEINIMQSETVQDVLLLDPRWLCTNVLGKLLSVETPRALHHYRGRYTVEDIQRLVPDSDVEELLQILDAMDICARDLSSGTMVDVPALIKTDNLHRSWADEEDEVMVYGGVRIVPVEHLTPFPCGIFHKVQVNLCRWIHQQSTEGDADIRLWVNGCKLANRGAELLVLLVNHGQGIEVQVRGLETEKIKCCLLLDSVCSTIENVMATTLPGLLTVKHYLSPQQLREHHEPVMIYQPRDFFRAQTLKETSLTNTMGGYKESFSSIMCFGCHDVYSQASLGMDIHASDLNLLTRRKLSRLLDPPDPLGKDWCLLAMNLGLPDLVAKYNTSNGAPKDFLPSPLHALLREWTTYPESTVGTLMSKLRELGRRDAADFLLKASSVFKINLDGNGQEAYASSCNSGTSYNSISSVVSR
Sequence of Serine/threonine-protein kinase PAK 1 (Homo sapiens) (Q13153 whole entry): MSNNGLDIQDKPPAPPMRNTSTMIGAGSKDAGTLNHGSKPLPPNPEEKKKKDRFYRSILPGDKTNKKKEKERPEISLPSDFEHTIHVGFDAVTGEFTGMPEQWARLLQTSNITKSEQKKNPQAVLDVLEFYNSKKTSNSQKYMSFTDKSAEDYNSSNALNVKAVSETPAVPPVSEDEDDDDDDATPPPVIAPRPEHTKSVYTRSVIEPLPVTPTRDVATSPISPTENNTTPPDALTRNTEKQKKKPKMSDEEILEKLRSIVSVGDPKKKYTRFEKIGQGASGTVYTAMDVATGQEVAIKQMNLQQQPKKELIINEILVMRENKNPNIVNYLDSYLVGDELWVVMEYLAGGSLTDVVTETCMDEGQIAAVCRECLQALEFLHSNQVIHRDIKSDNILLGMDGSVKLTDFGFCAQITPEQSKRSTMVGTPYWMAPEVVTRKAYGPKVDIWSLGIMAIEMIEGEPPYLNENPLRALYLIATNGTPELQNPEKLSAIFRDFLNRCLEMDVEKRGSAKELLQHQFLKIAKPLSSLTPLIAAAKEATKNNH
Sequence of Casein kinase I isoform alpha (Homo sapiens) (P48729 2-337 limits assumed): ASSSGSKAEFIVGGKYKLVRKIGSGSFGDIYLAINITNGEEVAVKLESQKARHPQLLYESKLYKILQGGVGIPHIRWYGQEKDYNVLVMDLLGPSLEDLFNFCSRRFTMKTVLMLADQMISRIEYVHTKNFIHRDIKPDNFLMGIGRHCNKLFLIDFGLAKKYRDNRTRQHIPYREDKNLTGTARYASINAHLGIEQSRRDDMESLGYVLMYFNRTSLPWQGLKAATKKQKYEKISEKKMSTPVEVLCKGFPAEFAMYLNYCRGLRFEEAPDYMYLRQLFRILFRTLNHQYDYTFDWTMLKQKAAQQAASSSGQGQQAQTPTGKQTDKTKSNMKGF

SMILES	Ratio [1]	CC50 at 24 h [2]	inhibition [3]	inhibition [4]	inhibition [5]	inhibition [6]	inhibition [7]	inhibition [8]	inhibition [9]	remaining at 24 h [10]	Stability [11]	Stability [12]	Drug metabolism [13]	half-life at 10 µM [14]	Activity (RAW264.7)
Nc1ncnc2c1ccn2C1CCN(C(=O)c2ccc(S(=O)(=O)F)cc2)CC1	1050	> 100 µM	39%	0%	4%	0%	10%	6%	0%	< 1%	Stable	Stable	Metabolite_Notdetected	37.2 min	Non-Toxic
Cc1nc(N)c2ccn(C3CCN(C(=O)c4ccc(S(=O)(=O)F)cc4)CC3)c2n1	234	> 100 µM	47%	0%	13%	0%	0%	2%	0%	–	–	–	–	–	Non-Toxic
